Reference: BindingDB's records for doi:10.1016/s0960-894x(03)00677-2 (Pharmacor, 2003)

These molecules were tested against T1, Dimer of Gag-Pol polyprotein [501-599] (Human immunodeficiency virus 1, UniProt P03367) (assay: Protease Inhibition Assay). Conditions: pH 4.7; 30 °C.
T1 construct: 501-599
Protocol: HIV-1 protease activity was measured by a continuous fluorometric assay using the internally quenched fluorogenic substrate DABCYL-Ser-Gln-Asn-Tyr-Pro-Ile-Val-Gln-EDANS. The proteolytic activity can be monitored by the increase in fluorescence intensity, and the protease products were analyzed by HPLC.
`O[C@@H]([C@H](O)[C@@H](COc1ccccc1)OCc1ccccc1)[C@@H](COc1ccccc1)OCc1ccccc1` [(2R,3S,4S,5R)-2,5-bis(benzyloxy)-1,6-diphenoxyhexane-3,4-diol] gave an IC50 greater than 50 µM. `O[C@H]([C@H](O)[C@@H](COCc1ccccc1)OCc1ccccc1)[C@@H](COCc1ccccc1)OCc1ccccc1` [(2R,3R,4S,5R)-1,2,5,6-tetrakis(benzyloxy)hexane-3,4-diol] showed an IC50 greater than 50 µM. `O[C@@H]([C@H](O)[C@@H](COCc1ccccc1)OCc1ccccc1)[C@H](COCc1ccccc1)OCc1ccccc1` [(2R,3S,4S,5S)-1,2,5,6-tetrakis(benzyloxy)hexane-3,4-diol] gave an IC50 greater than 50 µM. Molecule `O[C@@H]([C@H](O)[C@@H](Cc1ccccc1)OCc1ccccc1)[C@@H](Cc1ccccc1)OCc1ccccc1` [(2R,3S,4S,5R)-2,5-bis(benzyloxy)-1,6-diphenylhexane-3,4-diol] has an IC50 greater than 50 µM. With `O[C@H]([C@H](O)[C@H](COCc1ccccc1)OCc1ccccc1)[C@@H](COCc1ccccc1)OCc1ccccc1` [(2R,3R,4S,5S)-1,2,5,6-tetrakis(benzyloxy)hexane-3,4-diol] the IC50 was greater than 50 µM. In the case of `O[C@H]([C@@H](O)[C@H](COCc1ccccc1)OCc1ccccc1)[C@H](COCc1ccccc1)OCc1ccccc1` [(2S,3R,4R,5S)-1,2,5,6-tetrakis(benzyloxy)hexane-3,4-diol], the IC50 is reported as greater than 50 µM. `O[C@@H](C[C@@H](COCc1ccccc1)OCc1ccccc1)[C@@H](COCc1ccccc1)OCc1ccccc1` [(2R,3S,5S)-1,2,5,6-tetrakis(benzyloxy)hexan-3-ol] gave an IC50 greater than 50 µM.
